In PubChem BioAssay (NCI):
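These data come from cells grown in 96-well plates and exposed to compound for 48 hours at five concentrations. The concentration for full growth arrest is given as TGI.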

What was measured:
Assay in all cases: NCI tumour cell line growth inhibition, 48 h
[1] = system: RXF-631 renal
[2] = system: P388 leukemia
[3] = system: MDA-MB-231 breast
[4] = system: HS 578T breast
[5] = system: MDA-MB-435
[6] = system: DU-145 prostate
[7] = system: BT-549 breast
[8] = system: MDA-N
[9] = system: PC-3 prostate
[10] = system: SR leukemia

O=C(c1ccccc1)c1ccc2n[se]nc2c1
TGI [1]: > 100 µM

CC1=C2C(O)C(C(C)C(=O)N(C)C)CCC2(C)C=CC1=O (stereo unspecified)
TGI [2]: > 100 µM

CN(C)CCNC(=O)c1cccc2c(=O)c3ccccc3oc12
TGI [2]: 52.2 µM

CCOP(=Nc1ccc(N(C)C)cc1)(OCC)OCC
TGI [3]: > 100 µM | TGI [4]: > 100 µM | TGI [5]: > 100 µM | TGI [6]: > 100 µM | TGI [7]: > 100 µM | TGI [8]: > 100 µM | TGI [9]: > 100 µM

CCC1C[N+]23CCc4c([nH]c5ccccc45)C2CC1CC3 (stereo unspecified)
TGI [10]: > 100 µM
